Test results reported in patent US6087379A, “Cyclic amine derivatives” (Sankyo Company, Limited, priority 1996, dated 2000).
Structures can show the parent of a compound that is named as a salt.

Key:
male ICR mice = experiment: Test 1: Prolongation of Bleeding Time in Mice; format: in vivo, mouse (ICR); details: oral, 3 days (48, 24 and 4 hours before), ratio test compound-treated to control, cut-off 300 seconds
Protocol: Prolongation of Bleeding Time in Mice Groups of 10 male ICR mice (Charles River Japan Inc.) were used in the experiment. Test compound suspended in 5% gum arabic solution was orally administered for 3 days (48, 24 and 4 hours before the experiment). Each mouse was placed in a retainer, and the tail was transected at 5 mm from the tip, and then the tail (2 cm) was immersed in saline solution warmed at 37° C. Bleeding time was defined as the interval between the time of transection until bleeding stopped over a 15 seconds period. Bleeding times beyond 5 minutes were recorded as 5 minutes (300 seconds). Results were expressed as ratios of bleeding times of test compound-treated to non-treated (control) groups in which mice received 5% gum arabic solution.

platelet aggregation = experiment: Test 2: Antiaggregatory Action in Rats (ex vivo platelet aggregation in citrated blood, ADP or collagen); details: Rattus norvegicus, oral, 4 hours before, female SD rats, induced by ADP or collagen (which one not given)
Protocol: Antiaggregatory Action in Rats
Groups of 4 female SD rats (Charles River Japan Inc.) were used in the experiment Test compound suspended in 5% gum arabic solution was orally administered to rats 4 hours before the experiment. Control rats received 5% gum farabic solution. Platelet aggregation was measured according to the method of P. Lumley and P. P. A. Humphrey (J. Pharmacol. Methods, 6, 153-166 (1981)) with a slight modification. Blood (5.4 ml) was collected from the abdominal aorta of anesthetized rats using 3.8% (w/v) sodium citrate solution (0.6 ml) as an anticoagulant. An aliquot of citrated blood (1.2 ml) added to the cuvette was stirred (1000 rpm) at 37° C. Two minutes later, blood (0.3 ml) was taken from the cuvette, and the number of platelets was measured by an automatic hematology analyzer (E-4000, Toa Iyo Denshi), which was designated as the pre-aggregation number of platelets. To the remaining blood (0.9 ml) in the cuvette were added 0.1 ml of 0.05 mM adenosine-5'-diphosphate (ADP) or 0.06 mg/ml collagen to induce platelet aggregation. Two minutes after the addition of ADP or 4 minutes after the addition of collagen, blood (0.3 ml) was taken from the cuvette, and the number of platelets was measured, which was designated as the post-aggregation number of platelets. Platelet aggregation (%) was determined by the following equation:
100×(pre-aggregation number of platelets-post-aggregation number of
platelets)/pre-aggregation number of platelets
Antiaggregatory action of the test compound was determined comparing platelet aggregation of test compound-treated rats to that of control rats (without administration of test compound).

Human Platelets = experiment: Test 3: Antiaggregatory Action in Human Platelets (PRP, ADP-induced aggregation); format: cell-based; details: Platelet, 37° C.; for inhibition at 10 µg/mL: 10 μg/ml; for inhibition at 30 µg/mL: 30 μg/ml
Protocol: Antiaggregatory Action in Human Platelets
Platelet aggregation was measured using an automatic platelet aggregometer (PAM-8C, Mebanix) by the method of G.V.R. Born (Nature, 194, 927-929 (1962)) with a slight modification. Blood was collected from the antecubital vein of healthy volunteers who had not taken any medications for 2 weeks using 3.8% sodium citrate as an anticoagulant (1/9 volume of blood). Platelet-rich plasma (PRP) was obtained by centrifugation (CR5DL, Hitachi) at 200×g for 15 minutes at room temperature. Platelet-poor plasma (PPP) was obtained by further centrifugation of the remained blood at 2000×g for 10 minutes at room temperature. The number of platelets in PRP was measured by an automatic hematology analyzer (K-1000, Toa Iyo Denshi), and adjusted to 3×10^8 /ml using PPP. PRP prepared as described above was used for the platelet aggregation experiment. PRP (0.24 ml) was added to the cuvette and set in the platelet aggregometer. After pre-incubation for 1.5 minutes at 37° C., 0.01 ml of 0.25 mM ADP were added to the cuvette to initiate platelet aggregation. Platelet aggregation was monitored for 10 minutes.
Antiaggregatory action of test compound was expressed as inhibition (%) of aggregation comparing platelet aggregation of test compound to that of control (without addition of test compound).

SMILES | bleeding time extending ratio (male ICR mice; 10 mg/kg) | bleeding time extending ratio (male ICR mice; 30 mg/kg) | inhibition at 10 mg/kg (platelet aggregation) [%] | inhibition at 30 mg/kg (platelet aggregation) [%] | inhibition at 10 µg/mL (Human Platelets) [%] | inhibition at 30 µg/mL (Human Platelets) [%]
CC(=O)SC1CCN(C(C(=O)C2CC2)c2ccccc2F)CC1 (stereo not drawn) [Example 1(a), 4-Acetylthio-1-(α-cyclopropylcarbonyl-2-fluorobenzyl)piperidine] | 1.06 | 2.06 | 5.7 | 23.3 | – | –
Cl.O=C(C1CC1)C(c1ccccc1F)N1CCC(S)CC1 (stereo not drawn) [Example 1(b), 1-(α-Cyclopropylcarbonyl-2-fluorobenzyl)-4-mercaptopiperidine hydrochloride] | – | 1.46 | – | – | 48.6 | 70.6
CCOC(=O)/C=C1\CN(C(C(=O)C2CC2)c2ccccc2F)CCC1SC(C)=O (stereo not drawn) [Example 10(a), (E)-4-Acetylthio-1-(α-cyclopropylcarbonyl-2-fluorobenzyl)-3-ethoxycarbonylmethylidenepiperidine] | > 2.75 | > 2.75 | 88.6 | 97.2 | – | –
O=C(O)/C=C1/CN(C(C(=O)C2CC2)c2ccccc2F)CCC1S (stereo not drawn) [Example 12, (Z)-1-(α-Cyclopropylcarbonyl-2-fluorobenzyl)-3-carboxymethylidene-4-mercaptopiperidine trifluoroacetate] | – | – | – | – | 41.2 | 68.9
CCOC(=O)/C=C1\CN(C(C(=O)OC)c2ccccc2Cl)CCC1SC(C)=O (stereo not drawn) [Example 13, (E)-4-Acetylthio-1-(2-chloro-α-methoxycarbonylbenzyl)-3-ethoxycarbonylmethylidenepiperidine] | > 2.75 | > 2.75 | – | – | – | –
CC(=O)SC1CCN(C(C(=O)C2CC2)c2ccccc2F)C/C1=C\C(=O)N(C)C (stereo not drawn) [Example 15(a), (E)-4-Acetylthio-1-(α-cyclopropylcarbonyl-2-fluorobenzyl)-3-(N,N-dimethylcarbamoyl)methylidenepiperidine] | 2.53 | > 2.75 | 18.6 | 95.9 | – | –
CCCC(=O)SC1CCN(C(C(=O)C2CC2)c2ccccc2F)CC1 (stereo not drawn) [Example 18, 4-Butyrylthio-1-(α-cyclopropylcarbonyl-2-fluorobenzyl)piperidine] | 1.45 | 2.57 | – | 18.3 | – | –
COC(=O)C(c1ccccc1F)N1CCC(SC(=O)c2ccccc2)CC1 (stereo not drawn) [Example 28, 4-Benzoylthio-1-(2-fluoro-α-methoxycarbonylbenzyl)piperidine] | 1.24 | 2.16 | – | 39.6 | – | –
